The values that follow come from ChEMBL document CHEMBL4765464, “Discovery of BMS-986144, a Third-Generation, Pan-Genotype NS3/4A Protease Inhibitor for the Treatment of Hepatitis C Virus Infection” (J Med Chem, 2020).

Data set [1] in a line: Inhibition of recombinant full length NS3/4A protease in Hepatitis C virus subtype 3a infected in human HuH7 cells using Ac-Asp-Glu-Asp (EDANS)-Glu-Glu-Abu-(COO) Ala-Ser-Lys (DABCYL)-NH2 as substrate by FRET assay. As to conditions: Huh-7; call rule not given here.
Data set [2] can be described thus: Inhibition of recombinant full length NS3/4A protease in Hepatitis C virus subtype 1a replicon infected in human HuH7 cells preincubated for 3 days followed by substrate addition and measured after 2 hrs by renilla luciferase reporter gene assay. The class given is cell-based. The settings on record: Huh-7. Background: A replicon is a self-replicating genome or part of one, used to study replication in cells.

A short description of data set [3]: Inhibition of recombinant full length NS3/4A protease in Hepatitis C virus subtype 1b replicon infected in human HuH7 cells preincubated for 3 days followed by substrate addition and measured after 2 hrs by renilla luciferase reporter gene assay. The class given is cell-based. As to conditions: Huh-7.
Data set [4] can be described thus: Inhibition of recombinant full length NS3/4A protease in Hepatitis C virus subtype 2a replicon infected in human HuH7 cells preincubated for 3 days followed by substrate addition and measured after 2 hrs by renilla luciferase reporter gene assay. The class given is cell-based. As to conditions: Huh-7.
Data set [5] in a line: Inhibition of recombinant full length NS3/4A protease in Hepatitis C virus subtype 3a replicon infected in human HuH7 cells preincubated for 3 days followed by substrate addition and measured after 2 hrs by renilla luciferase reporter gene assay. As to conditions: Huh-7. The format is cell-based.
Data set [6] is described as follows: Inhibition of recombinant full length NS3/4A R155K mutant protease in Hepatitis C virus subtype 1a replicon infected in human HuH7 cells preincubated for 3 days followed by substrate addition and measured after 2 hrs by renilla luciferase reporter gene assay. The class given is cell-based. As to conditions: Huh-7.
The nature of data set [7]: Inhibition of recombinant full length NS3/4A D168V mutant protease in Hepatitis C virus subtype 1b replicon infected in human HuH7 cells preincubated for 3 days followed by substrate addition and measured after 2 hrs by renilla luciferase reporter gene assay. The class given is cell-based. As to conditions: Huh-7.
Data set [8] can be described thus: Metabolic stability in human liver microsomes assessed as half-life incubated for 5 to 45 mins in presence of NADPH by LC-MS analysis. The format is ADME, Microsome. The settings on record: time 5-45 min.
Data set [9] is described as follows: Drug concentration in rat plasma at 5 mg/kg, po measured upto 24 hrs. The format is ADME, organism-based. The settings on record: read-out: Ct.
Data set [10] in a line: Drug concentration in rat liver at 5 mg/kg, po measured upto 24 hrs. The class given is ADME, organism-based. The settings on record: read-out: Ct.
Data set [11] can be described thus: Oral bioavailability in rat at 5 mg/kg. The format is ADME, organism-based. As to conditions: in vivo.
Data set [12] can be described thus: Half-life in dog at 3 mg/kg, po or 1 mg/kg, iv. The format is ADME, organism-based, Canis lupus familiaris. The settings on record: in vivo.
A short description of data set [13]: Half-life in rat at 5 mg/kg, po or 1 mg/kg, iv. As to conditions: in vivo. The class given is ADME, organism-based.
The nature of data set [14]: Clearance in rat at 5 mg/kg, po or 1 mg/kg, iv. The class given is ADME, organism-based. As to conditions: in vivo.
Data set [15] can be described thus: AUC in rat at 5 mg/kg, po or 1 mg/kg, iv. As to conditions: in vivo. The class given is ADME, organism-based. The arrangement: dose 5 mg/kg.
The nature of data set [16]: Clearance in dog at 3 mg/kg, po or 1 mg/kg, iv. The class given is ADME, organism-based, Canis lupus familiaris. As to conditions: in vivo.
Data set [17] in a line: Oral bioavailability in dog at 3 mg/kg. The format is ADME, organism-based, Canis lupus familiaris. The settings on record: in vivo.
A short description of data set [18]: AUC in dog at 3 mg/kg, po or 1 mg/kg, iv. The class given is ADME, organism-based, Canis lupus familiaris. Details: dose 3 mg/kg. The settings on record: in vivo.
A short description of data set [19]: Drug concentration in dog plasma at 3 mg/kg, po measured upto 24 hrs. The class given is ADME, organism-based, Canis lupus familiaris. The settings on record: read-out: Ct.
Data set [20] is described as follows: Half-life in cynomolgus monkey at 3 mg/kg, po or 1 mg/kg, iv. The settings on record: in vivo. The format is ADME, organism-based, Macaca fascicularis.
A short description of data set [21]: Clearance in cynomolgus monkey at 3 mg/kg, po or 1 mg/kg, iv. The format is ADME, organism-based, Macaca fascicularis. The settings on record: in vivo.
Data set [22] in a line: Oral bioavailability in cynomolgus monkey at 3 mg/kg. The class given is ADME, organism-based, Macaca fascicularis. The settings on record: in vivo.
Data set [23] is described as follows: AUC in cynomolgus monkey at 3 mg/kg, po or 1 mg/kg, iv. As to conditions: in vivo. The arrangement: dose 3 mg/kg. The class given is ADME, organism-based, Macaca fascicularis.
The target of data set [24] is T1, Cytochrome P450 3A4 (Homo sapiens, UniProt P08684). The data set is described as follows: Inhibition of human CYP3A4 in human pooled liver microsomes at 0.002 to 40 uM in presence of midazolam as substrate preincubated in presence of NADPH followed by addition of substrate by LC-MS/MS analysis. The class given is ADME. As to conditions: TDE = time-dependent effect, dose 0.002-40 µM, time <=30 min. Background: Liver microsomes are vesicles of endoplasmic reticulum, rich in cytochrome P450 enzymes.

Data set [25] concerns the target T1, Cytochrome P450 3A4. The data set is described as follows: Inhibition of human CYP3A4 in human pooled liver microsomes at 0.002 to 40 uM in presence of testosterone as substrate preincubated in presence of NADPH followed by addition of substrate by LC-MS/MS analysis. The format is ADME. The settings on record: TDE = time-dependent effect, dose 0.002-40 µM, time <=30 min.

For data set [26], the target named is T1, Cytochrome P450 3A4. The data set is described as follows: Inhibition of human CYP3A4 in human pooled liver microsomes in presence of testosterone as substrate preincubated for 0 mins in presence of NADPH followed by addition of substrate by LC-MS/MS analysis. The class given is ADME.
Data set [27] deals with T1, Cytochrome P450 3A4. The data set is described as follows: Inhibition of human CYP3A4 in human pooled liver microsomes in presence of midazolam as substrate preincubated for 0 mins in presence of NADPH followed by addition of substrate by LC-MS/MS analysis. The format is ADME.
The target in data set [28] is T1, Cytochrome P450 3A4. The data set is described as follows: Inhibition of human CYP3A4 in human pooled liver microsomes in presence of testosterone as substrate preincubated for 30 mins in presence of NADPH followed by addition of substrate by LC-MS/MS analysis. The class given is ADME.
Data set [29] concerns the target T1, Cytochrome P450 3A4. The data set is described as follows: Inhibition of human CYP3A4 in human pooled liver microsomes in presence of midazolam as substrate preincubated for 30 mins in presence of NADPH followed by addition of substrate by LC-MS/MS analysis. The class given is ADME.
A short description of data set [30]: Toxicity in rat assessed as clinical effect measured upto 4 days. The settings on record: in vivo, 96 h, time <=4 day.
Data set [31] in a line: Toxicity in rat assessed as histopathological changes measured upto 4 days. The settings on record: in vivo, 96 h, time <=4 day.
Data set [32] can be described thus: Toxicity in rat assessed as effect on cardiovascular system by telemetry. As to conditions: in vivo.
Data set [33] is described as follows: Toxicity in rabbit assessed as effect on cardiovascular system by telemetry. Details: species or system Oryctolagus cuniculus. The settings on record: in vivo.
Data set [34] addresses T1, Cytochrome P450 3A4. The data set is described as follows: […] of CYP3A4 in human liver microsome in presence of midazolam as substrate preincubated for upto 30 mins in presence of NADPH followed by addition of substrate by LC-MS/MS analysis. The format is ADME. The settings on record: microsomes.
The next data set has as its system CHO. The data set is described as follows: Genotoxicity in Chinese Hamster CHO cells assessed as non clastogenicity by micronucleus assay. The class given is toxicity, cell-based, Cricetulus griseus.
Data set [35] is described as follows: Cytotoxicity against human Huh-7 cells assessed as reduction in cell viability. The format is cell-based.
Data set [36] can be described thus: Cytotoxicity against human MT2 cells assessed as reduction in cell viability. The class given is cell-based.
Data set [37] can be described thus: Genotoxicity in Salmonella typhimurium by AMES test. The class given is toxicity. The settings on record: salmonella enterica subsp. enterica serovar typhimurium.

A word on the IC50: it is the point on the concentration scale where inhibition reaches its midpoint. Usually EC50 stands for the concentration that produces a half-maximal response. A word on the half-life: it is the time in which the quantity being followed falls by half. Usually bioavailability stands for dose-corrected exposure relative to a reference, in per cent. A word on the AUC: it is concentration integrated over time. For orientation: CC50 means the concentration that lowers cell viability or growth by half.

T1 sequence (P08684 whole entry): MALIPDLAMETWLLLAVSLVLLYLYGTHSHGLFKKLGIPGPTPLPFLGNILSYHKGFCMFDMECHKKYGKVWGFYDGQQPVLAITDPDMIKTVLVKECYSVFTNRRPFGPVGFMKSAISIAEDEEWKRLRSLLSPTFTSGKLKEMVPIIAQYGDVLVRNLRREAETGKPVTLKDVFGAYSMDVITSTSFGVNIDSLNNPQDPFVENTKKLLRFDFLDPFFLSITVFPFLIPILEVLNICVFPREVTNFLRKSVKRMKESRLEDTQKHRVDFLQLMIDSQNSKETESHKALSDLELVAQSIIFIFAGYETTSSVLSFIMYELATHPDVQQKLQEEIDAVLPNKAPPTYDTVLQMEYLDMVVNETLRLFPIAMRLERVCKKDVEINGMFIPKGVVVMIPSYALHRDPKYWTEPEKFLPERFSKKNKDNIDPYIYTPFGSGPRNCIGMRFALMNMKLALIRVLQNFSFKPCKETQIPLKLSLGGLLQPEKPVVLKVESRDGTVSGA

Turning to `[2H]C([2H])([2H])Oc1cc2ccnc(O[C@@H]3C[C@H]4C(=O)N[C@]5(C(=O)NS(=O)(=O)C6(C)CC6)C[C@H]5/C=C\CC[C@@H](C)C[C@@H](CC)[C@H](NC(=O)OC(C)(C)C(F)(F)F)C(=O)N4C3)c2cc1F`, the 50% inhibitory concentration (IC50) is 4.8 nM in data set [1]; more than 40000 nM on Cytochrome P450 3A4 [26]; more than 40000 nM on Cytochrome P450 3A4 [27]; more than 33000 nM on Cytochrome P450 3A4 [28]; 16400 nM at Cytochrome P450 3A4 [29]. Moreover, the EC50 came to 2.3 nM in [2]; 0.7 nM in [3]; 1 nM in [4]; 12 nM in [5]; 8 nM in data set [6]; 5.8 nM in data set [7]. Besides, the half-life in data set [8] is 0.55 h; in data set [12], 8.7 h; in [13], 13.4 h; in data set [20], 1.2 h. The concentration at 24 h in data set [9] came to 3.85 µM; in data set [10], 4.16 µM; in data set [19] it was 0.163 µM. Further, the figures for the bioavailability in data set [11], in data set [17] and in [22] were 57%, 71% and 23.9%, respectively. The results for the clearance in [14], in [16] and in data set [21] were 0.18 mL/min/kg, 1.1 mL/min/kg and 12.1 mL/min/kg, respectively. In addition, the area under the curve (AUC) in [15] was 310 µM·h; in data set [18] it was 39.8 µM·h; in [23] it was 0.19 µM·h. Further, the “inhibition (INH)” value on Cytochrome P450 3A4 [24] and on Cytochrome P450 3A4 [25] was “Tde” throughout. The Activity entry is reported as “Non-Toxic” in [30]; “Non-Toxic” in data set [31]; “Non-Toxic” in [32]; “Non-Toxic” in [33]; “Not Active” on Cytochrome P450 3A4 [34]; “Non-Toxic” with CHO. In addition, in data set [37], the Activity entry was “Non-Toxic”. Further, the CC50 in data set [35] stood at 25000 nM; in data set [36], 34000 nM.

Turning to `CC[C@@H]1C[C@H](C)CC/C=C\[C@@H]2C[C@@]2(C(=O)NS(=O)(=O)C2(C)CC2)NC(=O)[C@@H]2C[C@@H](Oc3nccc4cc(O)c(F)cc34)CN2C(=O)[C@H]1NC(=O)OC(C)(C)C(F)(F)F`, the EC50 in data set [3] came out at 1.3 nM; in data set [4], 1.9 nM; in data set [5], 48 nM; in [6], 3.9 nM; in [7], 9.5 nM. Moreover, in data set [8], the half-life came out at 0.617 h. In addition, the “inhibition (INH)” value on Cytochrome P450 3A4 [24] and at Cytochrome P450 3A4 [25] was “Tde” each time.
